According to patent publication US20250154109A1, “SODIUM CHANNEL BLOCKING COMPOUNDS, DERIVATIVES THEREOF, AND METHODS OF THEIR USE” (LATIGO BIOTHERAPEUTICS, INC, priority 2022, published 2025):
Where a name gives a salt, the structure may show the parent alone. Read-outs that look alike come from different tables or passages of the source.

Target: human Nav1.8 (Homo sapiens, UniProt Q9Y5Y9)
Assay: SyncroPatch384PE assay (automated patch clamp)
Assay type: cell-based
Details: human Nav1.8/b3 CHO cells
Description: Compounds were tested on recombinant human Nav1.8/b3 stably transfected CHO cells using the SyncroPatch384PE system (Nanion Technologies), an automated patch clamp device. Cells were cultured at 37° C./5% CO2 in Ham's F-12 supplemented with 10% fetal bovine serum, 100 U/mL penicillin G sodium, […] streptomycin sulfate and selection antibiotics (0.01 mg/mL Blasticidin, 0.4 mg/mL Zeocin and 0.25 mg/mL Hygromycin). On the day of the recordings, cells in culture dishes were washed twice with Hank's Balanced Salt Solution (HBSS) and treated with Accutase for approximately 20 minutes. Immediately before use in the SynchroPatch384PE using an 8-hole NPC-384 chip, the cells were washed in HBSS to remove the Accutase and re-suspended in extracellular solution. All experiments were performed at ambient temperature. Intracellular solution contained (mM): CsCl, 50; CsF, 90; MgCl2, 5; EGTA, 1; HEPES, 10; pH adjusted to 7.2 with CsOH. Extracellular solution contained (mM): NaCl, 137; KCl, 4.0; CaCl2), 3.8; MgCl2, 1; HEPES, 10; Glucose, 10; pH adjusted to 7.4 with NaOH. 100 nM tetrodotoxin (TTX) was added to the extracellular solution to block endogenous TTX-sensitive sodium currents.
Compounds were tested in quadruplicate in 0.3% DMSO and 0.03% pluronic Acid. Compounds were diluted 1:3.33 in extracellular solution to create an 8-point concentration response curve. Each plate contained a historical positive control and up to ten compounds. 300 μM tetracaine and 0.3% DMSO+0.03% pluronic acid were used as high and low controls respectively.
Whole cell patch clamp recordings were conducted according to Nanion's standard procedure for SyncroPatch384PE®. Cells were held at a holding potential of −120 mV. A depolarization step to 10 mV for 30 ms was applied (P1 measurement), followed by a hyperpolarization step to −100 mV for 100 ms. An inactivation step at −35 mV for 10 sec was applied before stepping to −100 mV for 20 ms, followed by a step to 10 mV for 30 ms (P2 measurement) and then back to −100 mV for 30 ms. Sweep interval was 15 sec. Following establishment of the whole-cell configuration in extracellular solution, cells were washed in extracellular solution containing 0.3% DMSO and 0.03% pluronic acid to stabilize the baseline current. Compounds were then applied by the SynchroPatch384 PE system into each well and the current was recorded for five minutes in extracellular solution, followed by application of tetracaine to achieve full block at the end of experiment. The potency of the compounds was assessed on two read-outs, resting state block (P1 measurement) or inactivated state block (P2 measurement) to obtain IC50 values. Values were normalized to high (tetracaine) and low (DMSO+pluronic acid) controls.
Examples 1 to 219 and Examples 225 to 236 are assayed using SyncroPatch384PE assay described above.

[1] = inactivated state block (P2 measurement), read-out: P2 IC50
[2] = resting state block (P1 measurement), read-out: P1 IC50

Sequence of human Nav1.8 (Q9Y5Y9 whole entry): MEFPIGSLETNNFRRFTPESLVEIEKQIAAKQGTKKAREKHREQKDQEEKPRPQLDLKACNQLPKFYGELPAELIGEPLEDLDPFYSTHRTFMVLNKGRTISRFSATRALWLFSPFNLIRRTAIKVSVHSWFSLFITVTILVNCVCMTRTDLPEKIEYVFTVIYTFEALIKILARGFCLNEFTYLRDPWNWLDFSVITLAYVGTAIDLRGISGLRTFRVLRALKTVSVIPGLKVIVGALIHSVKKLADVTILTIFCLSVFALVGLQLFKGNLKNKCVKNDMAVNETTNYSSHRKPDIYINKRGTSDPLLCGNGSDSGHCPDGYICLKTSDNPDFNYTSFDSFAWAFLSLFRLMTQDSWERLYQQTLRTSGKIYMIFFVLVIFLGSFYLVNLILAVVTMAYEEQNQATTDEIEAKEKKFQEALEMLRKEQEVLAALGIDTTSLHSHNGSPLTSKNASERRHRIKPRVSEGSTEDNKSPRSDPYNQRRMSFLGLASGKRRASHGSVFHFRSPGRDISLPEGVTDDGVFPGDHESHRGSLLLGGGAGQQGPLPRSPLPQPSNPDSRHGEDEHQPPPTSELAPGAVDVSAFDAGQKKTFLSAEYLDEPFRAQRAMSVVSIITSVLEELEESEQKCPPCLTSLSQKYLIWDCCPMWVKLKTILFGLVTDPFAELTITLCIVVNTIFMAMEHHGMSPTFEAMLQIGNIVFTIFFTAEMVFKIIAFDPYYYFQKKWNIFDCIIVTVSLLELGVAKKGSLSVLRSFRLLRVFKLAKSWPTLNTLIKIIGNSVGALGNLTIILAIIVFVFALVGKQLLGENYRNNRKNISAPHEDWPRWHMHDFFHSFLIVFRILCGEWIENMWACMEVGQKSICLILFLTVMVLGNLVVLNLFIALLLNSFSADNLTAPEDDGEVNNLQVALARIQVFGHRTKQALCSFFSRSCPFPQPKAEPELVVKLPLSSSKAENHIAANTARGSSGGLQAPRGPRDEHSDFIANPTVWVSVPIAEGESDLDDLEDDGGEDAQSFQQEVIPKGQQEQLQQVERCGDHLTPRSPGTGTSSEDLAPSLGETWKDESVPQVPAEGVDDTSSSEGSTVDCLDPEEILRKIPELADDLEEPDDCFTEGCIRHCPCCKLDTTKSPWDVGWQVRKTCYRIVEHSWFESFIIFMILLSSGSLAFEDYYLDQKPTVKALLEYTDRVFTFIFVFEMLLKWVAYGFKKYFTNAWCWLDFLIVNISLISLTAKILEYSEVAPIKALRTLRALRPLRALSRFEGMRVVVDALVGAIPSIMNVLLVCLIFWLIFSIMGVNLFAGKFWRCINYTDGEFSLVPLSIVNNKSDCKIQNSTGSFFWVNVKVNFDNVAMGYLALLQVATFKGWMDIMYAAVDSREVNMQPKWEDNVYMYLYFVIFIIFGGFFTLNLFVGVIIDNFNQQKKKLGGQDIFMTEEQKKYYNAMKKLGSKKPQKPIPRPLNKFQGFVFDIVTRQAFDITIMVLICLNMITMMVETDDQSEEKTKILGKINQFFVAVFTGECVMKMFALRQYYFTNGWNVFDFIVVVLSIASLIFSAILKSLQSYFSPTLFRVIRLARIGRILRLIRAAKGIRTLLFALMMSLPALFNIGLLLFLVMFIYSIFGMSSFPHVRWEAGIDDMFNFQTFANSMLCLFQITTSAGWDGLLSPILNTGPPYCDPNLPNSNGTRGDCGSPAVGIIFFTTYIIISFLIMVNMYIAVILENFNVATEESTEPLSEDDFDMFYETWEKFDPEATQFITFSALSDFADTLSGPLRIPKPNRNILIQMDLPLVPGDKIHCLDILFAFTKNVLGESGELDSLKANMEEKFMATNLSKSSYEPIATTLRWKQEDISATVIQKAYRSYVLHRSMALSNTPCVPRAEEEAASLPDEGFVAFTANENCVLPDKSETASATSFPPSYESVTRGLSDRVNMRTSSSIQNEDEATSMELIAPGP

Row | IC50 [1] [nM] | IC50 [2] [nM] | SMILES
1 | ≤ 5 | ≤ 5 | Cc1c(C(F)(F)F)nnc(N2CCCC(F)(F)CC2)c1C(=O)Nc1cccc([S@@](C)(=O)=NC(=O)[C@@H](C)N)c1 [Example 183, N-(3-((R)-N-(D-alanyl)-S-methylsulfonimidoyl)phenyl)-3-(4,4-difluoroazepan-1-yl)-5-methyl-6-(trifluoromethyl)pyridazine-4-carboxamide]
2 | 50 to 100 | 50 to 100 | Cc1c(-c2ccccc2)nnc(N2CCCC(F)(F)CC2)c1C(=O)Nc1cccc(S(C)(=N)=O)c1 (stereo not drawn) [Example 20, 3-(4,4-difluoroazepan-1-yl)-5-methyl-N-(3-(S-methylsulfonimidoyl)phenyl)-6-phenylpyridazine-4-carboxamide]
3 | ≤ 5 | ≤ 5 | Cc1c(-c2ccc(C#N)cc2)cnc(N2CCCC(F)(F)CC2)c1C(=O)Nc1cccc(S(C)(=N)=O)c1 (stereo not drawn) [Example 81]
4 | 5 to 50 | 5 to 50 | Cc1c(Cl)c(-c2cnn(C)c2)nc(N2CCCC(F)(F)CC2)c1C(=O)Nc1ccnc([S@](C)(=N)=O)c1 [Example 212, (R)-5-chloro-2-(4,4-difluoroazepan-1-yl)-4-methyl-6-(1-methyl-1H-pyrazol-4-yl)-N-(2-(S-methylsulfonimidoyl)pyridin-4-yl)nicotinamide]
5 | ≤ 5 | ≤ 5 | Cc1c(Cl)c(C(F)(F)F)nc(N2CCCC(F)(F)CC2)c1C(=O)Nc1cccc([S@](C)(=N)=O)c1 [Example 109, (R)-5-chloro-2-(4,4-difluoroazepan-1-yl)-4-methyl-N-(3-(S-methylsulfonimidoyl)phenyl)-6-(trifluoromethyl)nicotinamide]
6 | ≤ 5 | ≤ 5 | Cc1c(-c2ccccc2)cnc(N2CCCC(F)(F)CC2)c1C(=O)Nc1cccc([S@@](C)(=N)=O)c1 [Example 103, (S)-2-(4,4-difluoroazepan-1-yl)-4-methyl-N-(3-(S-methylsulfonimidoyl)phenyl)-5-phenylnicotinamide]
7 | ≤ 5 | ≤ 5 | Cc1c(C(F)(F)F)cnc(N2CCCC(F)(F)CC2)c1C(=O)Nc1cccc([S@@](C)(=O)=NC(=O)CN)c1 [Example 181, (R)-2-(4,4-difluoroazepan-1-yl)-N-(3-(N-glycyl-S-methylsulfonimidoyl)phenyl)-4-methyl-5-(trifluoromethyl)nicotinamide]
8 | ≤ 5 | ≤ 5 | Cc1c(-c2ccc(C(F)F)cc2)cnc(N2CCCC(F)(F)CC2)c1C(=O)Nc1cccc(S(C)(=N)=O)c1 (stereo not drawn) [Example 87, 2-(4,4-difluoroazepan-1-yl)-5-(4-(difluoromethyl)phenyl)-4-methyl-N-(3-(S-methylsulfonimidoyl)phenyl)nicotinamide]
9 | 5 to 50 | 5 to 50 | C[S@@](=N)(=O)c1cccc(NC(=O)c2c(N3CCCC(F)(F)CC3)cnc(C(F)(F)F)c2Cl)c1 [Example 208, (R)-3-chloro-5-(4,4-difluoroazepan-1-yl)-N-(3-(S-methylsulfonimidoyl)phenyl)-2-(trifluoromethyl)isonicotinamide]
10 | ≤ 5 | ≤ 5 | Cc1c(C(=O)Nc2cccc([S@@](C)(=O)=NC(=O)[C@@H]3CCCN3)c2)c(N2CCCC(F)(F)CC2)nc(C(F)(F)F)c1-c1cnn(C)c1 [Example 190, N-(3-((R)-N-(L-prolyl)-S-methylsulfonimidoyl)phenyl)-2-(4,4-difluoroazepan-1-yl)-4-methyl-5-(1-methyl-1H-pyrazol-4-yl)-6-(trifluoromethyl)nicotinamide]
11 | 50 to 100 | 50 to 100 | Cc1ccnc(N2CCCC(F)(F)CC2)c1C(=O)Nc1cccc(S(C)(=N)=O)c1 (stereo not drawn) [Example 105, 2-(4,4-difluoroazepan-1-yl)-4-methyl-N-(3-(S-methylsulfonimidoyl)phenyl)nicotinamide]
12 | ≤ 5 | ≤ 5 | Cc1c(C(F)(F)F)nnc(N2CCCC(F)(F)CC2)c1C(=O)Nc1cccc([S@@](C)(=O)=NC(=O)CN)c1 [Example 177, (R)-3-(4,4-difluoroazepan-1-yl)-N-(3-(N-glycyl-S-methylsulfonimidoyl)phenyl)-5-methyl-6-(trifluoromethyl)pyridazine-4-carboxamide]
13 | ≤ 5 | ≤ 5 | Cc1c(-c2cc(F)cc(F)c2)cnc(N2CCCC(F)(F)CC2)c1C(=O)Nc1cccc([S@](C)(=N)=O)c1 [Example 61, (R)-2-(4,4-difluoroazepan-1-yl)-5-(3,5-difluorophenyl)-4-methyl-N-(3-(S-methylsulfonimidoyl)phenyl)nicotinamide]
14 | ≤ 5 | ≤ 5 | Cc1nc(N2CCCC(F)(F)CC2)c(C(=O)Nc2cccc([S@@](C)(=N)=O)c2)c(C)c1C(F)(F)F (single isomer, unassigned) [Example 185]
15 | 50 to 100 | 50 to 100 | Cc1c(-c2cnn(C)c2)cnc(N2CCCC(F)(F)CC2)c1C(=O)Nc1cccc(S(C)(=N)=O)c1 (stereo not drawn) [Example 83, 2-(4,4-difluoroazepan-1-yl)-4-methyl-5-(1-methyl-1H-pyrazol-4-yl)-N-(3-(S-methylsulfonimidoyl)phenyl)nicotinamide]
16 | 5 to 50 | 5 to 50 | Cc1c(-c2cnn(C)c2)cnc(N2CCCC(F)(F)CC2)c1C(=O)Nc1cccc([S@@](C)(=O)=NC(=O)C(C)(C)N)c1 [Example 52, (R)-N-(3-(N-(2-amino-2-methylpropanoyl)-S-methylsulfonimidoyl)phenyl)-2-(4,4-difluoroazepan-1-yl)-4-methyl-5-(1-methyl-1H-pyrazol-4-yl)nicotinamide formate]
17 | ≤ 5 | ≤ 5 | Cc1nc(N2CCC3(CC2)CC3)c(C(=O)Nc2cccc(S(C)(=N)=O)c2)cc1Cl (stereo not drawn) [Example 12, 5-chloro-6-methyl-N-(3-(S-methylsulfonimidoyl)phenyl)-2-(6-azaspiro[2.5]octan-6-yl)nicotinamide]
18 | ≤ 5 | ≤ 5 | Cc1c(C(F)(F)F)nnc(N2CCCC(F)(F)CC2)c1C(=O)Nc1cccc([S@@](C)(=O)=NC(=O)CO)c1 [Example 232, (R)-3-(4,4-difluoroazepan-1-yl)-N-(3-(N-(2-hydroxyacetyl)-S-methylsulfonimidoyl)phenyl)-5-methyl-6-(trifluoromethyl)pyridazine-4-carboxamide]
19 | ≤ 5 | ≤ 5 | Cc1nc(N2CCCC(F)(F)CC2)c(C(=O)Nc2cccc(S(C)(=N)=O)c2)cc1Cl (stereo not drawn) [Example 15, 5-chloro-2-(4,4-difluoroazepan-1-yl)-6-methyl-N-(3-(S-methylsulfonimidoyl)phenyl)nicotinamide]
20 | > 200 | > 200 | O=C(Nc1cc[nH]c(=O)c1)c1nnc(C(F)(F)F)cc1N1CCCC(F)(F)CC1 [Example 40, 4-(4,4-Difluoroazepan-1-yl)-N-(2-oxo-1,2-dihydropyridin-4-yl)-6-(trifluoromethyl)pyridazine-3-carboxamide]
21 | ≤ 5 | ≤ 5 | Cc1c(C#N)cnc(N2CCCC(F)(F)CC2)c1C(=O)NC12CC(C(N)=O)(C1)C2 [Example 136, N-(3-carbamoylbicyclo[1.1.1]pentan-1-yl)-5-cyano-2-(4,4-difluoroazepan-1-yl)-4-methylnicotinamide]
22 | ≤ 5 | ≤ 5 | Cc1c(C(F)(F)F)cnc(N2CCCC(F)(F)CC2)c1C(=O)Nc1cccc([S@@](C)(=O)=NC(=O)CN2CC(F)(F)C2)c1 [Example 202, (R)-2-(4,4-difluoroazepan-1-yl)-N-(3-(N-(2-(3,3-difluoroazetidin-1-yl)acetyl)-S-methylsulfonimidoyl)phenyl)-4-methyl-5-(trifluoromethyl)nicotinamide]
23 | ≤ 5 | ≤ 5 | Cc1nc(N2CCC3(CC2)CC3)c(C(=O)Nc2cccc(S(C)(=N)=O)c2)cc1C(F)(F)F (stereo not drawn) [Example 25, 6-Methyl-N-(3-(S-methylsulfonimidoyl)phenyl)-2-(6-azaspiro[2.5]octan-6-yl)-5-(trifluoromethyl)nicotinamide]
24 | ≤ 5 | ≤ 5 | CNCC(=O)N=[S@](C)(=O)c1cccc(NC(=O)c2c(N3CCCC(F)(F)CC3)ncc(C#N)c2C)c1 [Example 126, (R)-5-cyano-2-(4,4-difluoroazepan-1-yl)-4-methyl-N-(3-(S-methyl-N-(methylglycyl)sulfonimidoyl)phenyl)nicotinamide]
